# Laboratory results: ChEMBL document CHEMBL1148480, “Structure-activity studies of orexin a and orexin B at the human orexin 1 and orexin 2 receptors led to orexin 2 receptor selective and orexin 1 receptor preferring ligands” (J Med Chem, 2004)
# Residues, ends and D or L forms follow the SMILES beside them.
# Key:
# [1] = target: T1, Orexin/Hypocretin receptor type 1 (Homo sapiens, UniProt O43613); test: Effective agonist concentration to human orexin receptor type 1 determined using the Xlfit program; format: functional
# T1 sequence (O43613 whole entry): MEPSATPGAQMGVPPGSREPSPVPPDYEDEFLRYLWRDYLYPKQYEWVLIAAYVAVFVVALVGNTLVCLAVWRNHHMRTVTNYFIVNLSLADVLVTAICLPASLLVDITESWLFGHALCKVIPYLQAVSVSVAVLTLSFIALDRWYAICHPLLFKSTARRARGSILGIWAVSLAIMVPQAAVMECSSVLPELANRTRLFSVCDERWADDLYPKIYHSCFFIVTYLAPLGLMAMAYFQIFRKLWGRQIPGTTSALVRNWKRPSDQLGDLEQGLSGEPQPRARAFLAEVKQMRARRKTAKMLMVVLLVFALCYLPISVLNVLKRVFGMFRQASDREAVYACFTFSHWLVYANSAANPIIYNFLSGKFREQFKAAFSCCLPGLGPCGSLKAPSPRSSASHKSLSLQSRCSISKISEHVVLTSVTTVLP
# Orexin receptor type 2 = target: T2, Orexin receptor type 2 (Homo sapiens, UniProt O43614); test: Effective agonist concentration to the human Orexin receptor type 2 was determined using the Xlfit program; format: functional
# T2 sequence (O43614 whole entry): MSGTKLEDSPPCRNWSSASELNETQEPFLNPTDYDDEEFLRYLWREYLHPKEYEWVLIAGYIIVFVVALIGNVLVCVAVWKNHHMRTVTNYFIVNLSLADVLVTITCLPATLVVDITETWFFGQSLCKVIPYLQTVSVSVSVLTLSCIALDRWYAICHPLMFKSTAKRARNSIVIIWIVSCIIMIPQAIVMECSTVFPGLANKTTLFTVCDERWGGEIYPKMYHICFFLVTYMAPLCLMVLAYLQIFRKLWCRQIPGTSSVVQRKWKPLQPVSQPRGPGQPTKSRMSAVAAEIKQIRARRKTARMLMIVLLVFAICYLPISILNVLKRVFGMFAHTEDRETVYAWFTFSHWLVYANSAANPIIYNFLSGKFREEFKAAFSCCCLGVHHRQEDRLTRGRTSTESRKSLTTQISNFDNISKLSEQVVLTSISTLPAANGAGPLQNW
Compound,EC50 [1] [µM],EC50 (Orexin receptor type 2) [µM]
CC[C@H](C)[C@H](NC(=O)CNC(=O)[C@H](C)NC(=O)[C@H](C)NC(=O)[C@H](Cc1cnc[nH]1)NC(=O)[C@H](CC(N)=O)NC(=O)CNC(=O)[C@H](C)NC(=O)CNC(=O)[C@H](Cc1cnc[nH]1)NC(=O)[C@H](CC(C)C)NC(=O)[C@H](CC(C)C)NC(=O)[C@H](CCC(=O)O)NC(=O)[C@H](Cc1ccc(O)cc1)NC(=O)[C@H](CC(C)C)NC(=O)[C@H](CCCNC(=N)N)NC(=O)[C@H](CSSC[C@H](NC(=O)[C@@H](N)CO)C(=O)N[C@@H](CCCNC(=N)N)C(=O)N[C@@H](CC(C)C)C(=O)N[C@@H](Cc1ccc(O)cc1)C(=O)N[C@@H](CCC(=O)O)C(=O)N[C@@H](CC(C)C)C(=O)N[C@@H](CC(C)C)C(=O)N[C@@H](Cc1cnc[nH]1)C(=O)NCC(=O)N[C@@H](C)C(=O)NCC(=O)N[C@@H](CC(N)=O)C(=O)N[C@@H](Cc1cnc[nH]1)C(=O)N[C@@H](C)C(=O)N[C@@H](C)C(=O)NCC(=O)N[C@H](C(=O)N[C@@H](CC(C)C)C(=O)N[C@H](C(=O)N[C@@H](CC(C)C)C(=O)O)[C@@H](C)O)[C@@H](C)CC)NC(=O)[C@@H](N)CO)C(=O)N[C@@H](CC(C)C)C(=O)N[C@H](C(=O)N[C@@H](CC(C)C)C(=O)O)[C@@H](C)O,0.69,0.24
CC[C@H](C)[C@H](NC(=O)CNC(=O)[C@H](C)NC(=O)[C@H](C)NC(=O)[C@H](Cc1c[nH]cn1)NC(=O)[C@H](CC(N)=O)NC(=O)CNC(=O)[C@H](C)N)C(=O)N[C@@H](CC(C)C)C(=O)N[C@H](C(=O)N[C@@H](CC(C)C)C(=O)O)[C@@H](C)O (H-AGNHAAGILTL-OH),> 1000,> 1000
CC[C@H](C)[C@H](NC(=O)CNC(=O)[C@H](C)NC(=O)[C@H](C)NC(=O)[C@H](Cc1cnc[nH]1)NC(=O)[C@H](CC(N)=O)NC(=O)CNC(=O)[C@H](CO)NC(=O)[C@H](C)NC(=O)[C@H](CCC(N)=O)NC(=O)[C@H](CC(C)C)NC(=O)[C@H](CC(C)C)NC(=O)[C@H](CCCNC(=N)N)NC(=O)[C@H](CCC(N)=O)NC(=O)[C@H](CC(C)C)NC(=O)[C@H](CCCNC(=N)N)NC(=O)CNC(=O)[C@H](CCC(N)=O)NC(=O)[C@H](CC(C)C)NC(=O)[C@H](C)N)C(=O)N[C@@H](CC(C)C)C(=O)N[C@H](C(=O)N[C@@H](CCSC)C(=O)O)[C@@H](C)O (H-ALQGRLQRLLQASGNHAAGILTM-OH),3.16,0.57
CC[C@H](C)[C@H](NC(=O)CNC(=O)[C@H](C)NC(=O)[C@H](C)NC(=O)[C@H](Cc1cnc[nH]1)NC(=O)[C@H](CC(N)=O)NC(=O)CNC(=O)[C@H](CO)NC(=O)[C@H](C)NC(=O)[C@H](CCC(N)=O)NC(=O)[C@H](C)NC(=O)[C@H](CC(C)C)NC(=O)[C@H](CCCNC(=N)N)NC(=O)[C@H](CCC(N)=O)NC(=O)[C@H](CC(C)C)NC(=O)[C@H](CCCNC(=N)N)NC(=O)CNC(=O)[C@H](CCC(N)=O)NC(=O)[C@H](CC(C)C)NC(=O)CN)C(=O)N[C@@H](CC(C)C)C(=O)N[C@H](C(=O)N[C@@H](CCSC)C(=O)O)[C@@H](C)O (H-GLQGRLQRLAQASGNHAAGILTM-OH),> 1000,2.33
CC[C@H](C)[C@H](NC(=O)CNC(=O)[C@H](C)NC(=O)[C@H](C)NC(=O)[C@H](Cc1cnc[nH]1)NC(=O)[C@H](CC(N)=O)NC(=O)CNC(=O)[C@H](CO)NC(=O)[C@H](C)NC(=O)[C@H](C)NC(=O)[C@H](CC(C)C)NC(=O)[C@H](CC(C)C)NC(=O)[C@H](CCCNC(=N)N)NC(=O)[C@H](CCC(N)=O)NC(=O)[C@H](CC(C)C)NC(=O)[C@H](CCCNC(=N)N)NC(=O)CNC(=O)[C@H](CCC(N)=O)NC(=O)[C@H](CC(C)C)NC(=O)CN)C(=O)N[C@@H](CC(C)C)C(=O)N[C@H](C(=O)N[C@@H](CCSC)C(=O)O)[C@@H](C)O (H-GLQGRLQRLLAASGNHAAGILTM-OH),1.64,0.19
CSCC[C@H](NC(=O)[C@@H](NC(=O)[C@H](CC(C)C)NC(=O)[C@H](C)NC(=O)CNC(=O)[C@H](C)NC(=O)[C@H](C)NC(=O)[C@H](Cc1c[nH]cn1)NC(=O)[C@H](CC(N)=O)NC(=O)CNC(=O)[C@H](CO)NC(=O)[C@H](C)NC(=O)[C@H](CCC(N)=O)NC(=O)[C@H](CC(C)C)NC(=O)[C@H](CC(C)C)NC(=O)[C@H](CCCN=C(N)N)NC(=O)[C@H](CCC(N)=O)NC(=O)[C@H](CC(C)C)NC(=O)[C@H](CCCN=C(N)N)NC(=O)CNC(=O)[C@H](CCC(N)=O)NC(=O)[C@H](CC(C)C)NC(=O)CN)[C@@H](C)O)C(=O)O (H-GLQGRLQRLLQASGNHAAGALTM-OH),> 1000,> 1000
CC[C@H](C)[C@H](NC(=O)CNC(=O)[C@H](C)NC(=O)[C@H](C)NC(=O)[C@H](Cc1cnc[nH]1)NC(=O)[C@H](CC(N)=O)NC(=O)CNC(=O)[C@H](CO)NC(=O)[C@H](C)NC(=O)[C@H](CCC(N)=O)NC(=O)[C@H](CC(C)C)NC(=O)[C@H](CC(C)C)NC(=O)[C@H](CCCNC(=N)N)NC(=O)[C@H](CCC(N)=O)NC(=O)[C@H](CC(C)C)NC(=O)[C@H](CCCNC(=N)N)NC(=O)CNC(=O)[C@H](CCC(N)=O)NC(=O)[C@H](CC(C)C)NC(=O)CN)C(=O)N[C@@H](C)C(=O)N[C@H](C(=O)N[C@@H](CCSC)C(=O)O)[C@@H](C)O (H-GLQGRLQRLLQASGNHAAGIATM-OH),> 1000,15.6
CC[C@H](C)[C@H](NC(=O)CNC(=O)[C@H](C)NC(=O)[C@H](C)NC(=O)[C@H](Cc1cnc[nH]1)NC(=O)[C@H](CC(N)=O)NC(=O)CNC(=O)[C@H](CO)NC(=O)[C@H](C)NC(=O)[C@H](CCC(N)=O)NC(=O)[C@H](CC(C)C)NC(=O)[C@H](CC(C)C)NC(=O)[C@H](CCCNC(=N)N)NC(=O)[C@H](CCC(N)=O)NC(=O)[C@H](CC(C)C)NC(=O)[C@H](CCCNC(=N)N)NC(=O)CNC(=O)[C@H](CCC(N)=O)NC(=O)[C@H](CC(C)C)NC(=O)CN)C(=O)N[C@@H](CC(C)C)C(=O)N1CCC[C@H]1C(=O)N[C@@H](CCSC)C(=O)O (H-GLQGRLQRLLQASGNHAAGILPM-OH),> 1000,2.67
CSCC[C@H](NC(=O)[C@@H](NC(=O)[C@H](CC(C)C)NC(=O)[C@@H]1CCCN1C(=O)CNC(=O)[C@H](C)NC(=O)[C@H](C)NC(=O)[C@H](Cc1cnc[nH]1)NC(=O)[C@H](CC(N)=O)NC(=O)CNC(=O)[C@H](CO)NC(=O)[C@H](C)NC(=O)[C@H](CCC(N)=O)NC(=O)[C@H](CC(C)C)NC(=O)[C@H](CC(C)C)NC(=O)[C@H](CCCNC(=N)N)NC(=O)[C@H](CCC(N)=O)NC(=O)[C@H](CC(C)C)NC(=O)[C@H](CCCNC(=N)N)NC(=O)CNC(=O)[C@H](CCC(N)=O)NC(=O)[C@H](CC(C)C)NC(=O)CN)[C@@H](C)O)C(=O)O (H-GLQGRLQRLLQASGNHAAGPLTM-OH),> 1000,> 1000
CC[C@H](C)[C@H](NC(=O)CNC(=O)[C@@H]1CCCN1C(=O)[C@H](C)NC(=O)[C@H](Cc1cnc[nH]1)NC(=O)[C@H](CC(N)=O)NC(=O)CNC(=O)[C@H](CO)NC(=O)[C@H](C)NC(=O)[C@H](CCC(N)=O)NC(=O)[C@H](CC(C)C)NC(=O)[C@H](CC(C)C)NC(=O)[C@H](CCCNC(=N)N)NC(=O)[C@H](CCC(N)=O)NC(=O)[C@H](CC(C)C)NC(=O)[C@H](CCCNC(=N)N)NC(=O)CNC(=O)[C@H](CCC(N)=O)NC(=O)[C@H](CC(C)C)NC(=O)CN)C(=O)N[C@@H](CC(C)C)C(=O)N[C@H](C(=O)N[C@@H](CCSC)C(=O)O)[C@@H](C)O (H-GLQGRLQRLLQASGNHAPGILTM-OH),> 1000,3.6
CC[C@H](C)[C@H](NC(=O)CNC(=O)[C@H](C)NC(=O)[C@@H]1CCCN1C(=O)[C@H](Cc1cnc[nH]1)NC(=O)[C@H](CC(N)=O)NC(=O)CNC(=O)[C@H](CO)NC(=O)[C@H](C)NC(=O)[C@H](CCC(N)=O)NC(=O)[C@H](CC(C)C)NC(=O)[C@H](CC(C)C)NC(=O)[C@H](CCCNC(=N)N)NC(=O)[C@H](CCC(N)=O)NC(=O)[C@H](CC(C)C)NC(=O)[C@H](CCCNC(=N)N)NC(=O)CNC(=O)[C@H](CCC(N)=O)NC(=O)[C@H](CC(C)C)NC(=O)CN)C(=O)N[C@@H](CC(C)C)C(=O)N[C@H](C(=O)N[C@@H](CCSC)C(=O)O)[C@@H](C)O (H-GLQGRLQRLLQASGNHPAGILTM-OH),> 1000,4.4
CC[C@H](C)[C@H](NC(=O)CNC(=O)[C@H](C)NC(=O)[C@H](C)NC(=O)[C@@H]1CCCN1C(=O)[C@H](CC(N)=O)NC(=O)CNC(=O)[C@H](CO)NC(=O)[C@H](C)NC(=O)[C@H](CCC(N)=O)NC(=O)[C@H](CC(C)C)NC(=O)[C@H](CC(C)C)NC(=O)[C@H](CCCNC(=N)N)NC(=O)[C@H](CCC(N)=O)NC(=O)[C@H](CC(C)C)NC(=O)[C@H](CCCNC(=N)N)NC(=O)CNC(=O)[C@H](CCC(N)=O)NC(=O)[C@H](CC(C)C)NC(=O)CN)C(=O)N[C@@H](CC(C)C)C(=O)N[C@H](C(=O)N[C@@H](CCSC)C(=O)O)[C@@H](C)O (H-GLQGRLQRLLQASGNPAAGILTM-OH),1.89,0.84
CC[C@H](C)[C@H](NC(=O)CNC(=O)[C@H](C)NC(=O)[C@H](C)NC(=O)[C@H](Cc1cnc[nH]1)NC(=O)[C@@H](N)CC(N)=O)C(=O)N[C@@H](CC(C)C)C(=O)N[C@H](C(=O)N[C@@H](CC(C)C)C(=O)O)[C@@H](C)O (H-NHAAGILTL-OH),> 1000,> 1000
